# Test results reported in US20060182771A1, “Formulations for ocular treatment” (priority 2005, published 2006).
# Test: Concentration of rapamycin in the vitreous of rabbit eyes after intravitreal injection of the self-emulsifying formulation (LCMS)
# Type: in vivo, New Zealand white rabbits
# Settings: full vitreous homogenized, average of four eyes
# Experimental: 50 μl of the formulation described in Example 1 were injected into the vitreous of the eye of New Zealand white rabbits. The full vitreous, which included the area into which the self-emulsifying formulation was injected, was homogenized and analyzed at 1, 5, 24, 72 and 168 hours for the concentration of rapamycin remaining therein. The average concentration of the vitreous was calculated by dividing the mass of rapamycin measured by the volume of vitreous analyzed. The analysis was by liquid chromatography mass spectroscopy (LCMS). Each timepoint represents the average of two eyes of each of two rabbits (four eyes at each timepoint).
# The average concentration of rapamycin at 1, 5, 24, 72 and 168 hours was about 347, about 401, about 273, about 18, and about 1 μg/μl, respectively.
smiles,measurement,setting,value
CO[C@H]1C[C@@H]2CC[C@@H](C)[C@@](O)(O2)C(=O)C(=O)N2CCCC[C@H]2C(=O)O[C@H]([C@H](C)C[C@@H]2CC[C@@H](O)[C@H](OC)C2)CC(=O)[C@H](C)/C=C(\C)[C@@H](O)[C@@H](OC)C(=O)[C@H](C)C[C@H](C)/C=C/C=C/C=C/1C [rapamycin],average concentration of rapamycin in the vitreous,1 hour after injection of 50 μl of the Example 1 formulation into the vitreous,about 347 μg/μl
same,average concentration of rapamycin in the vitreous,5 hours after injection of 50 μl of the Example 1 formulation into the vitreous,about 401 μg/μl
same,average concentration of rapamycin in the vitreous,24 hours after injection of 50 μl of the Example 1 formulation into the vitreous,about 273 μg/μl
same,average concentration of rapamycin in the vitreous,72 hours after injection of 50 μl of the Example 1 formulation into the vitreous,about 18 μg/μl
same,concentration at 168 h,"New Zealand white, rabbit, vitreous (full vitreous homogenate), other: intravitreal injection, 168 hours after injection of 50 μl of the Example 1 formulation into the vitreous",~1000 µg/mL
